Source: patent US9440990B2, “1-arylcarbonyl-4-oxy-piperidine compounds useful for the treatment of neurodegenerative diseases” (TAKEDA PHARMACEUTICAL COMPANY LIMITED, priority 2011, dated 2016)

What was measured:
24-HC in the brain = assay: Quantification test of 24-HC in mouse brain after repeated oral administration; format: in vivo; conditions: brain 24-HC; female C57BL/6N mice; 10 mg/kg orally once a day for 3 days; 16 hours after the third administration; relative to control group as 100%
Description: Animals used were 6-week-old female C57BL/6N mice (3 mice/group). A test compound was suspended in a 0.5% aqueous methylcellulose [133-14255 WAKO] solution (1 mg/mL). The body weight of the mice was measured, and the solution was forcibly administered orally and repeatedly once a day for 3 days. At 16 hours after the third administration, half of the brain was recovered, and the amount of 24-HC was measured.
The wet weight of the brain was measured, and the brain was homogenized with about 4-fold amount (0.5 mL) of saline. This solution was used as a brain extract. 24-HC in the brain extract was extracted with an acetonitrile solution (98% acetonitrile, 1.98% methanol, 0.02% formic acid), and quantified by HPLC. The average value of 24-HC amount was calculated and the results are shown in relative values with the control group as 100%.

[1] = system: APP/PS1 double transgenic mouse; assay: Y-maze test using APP/PS1 double transgenic mouse; format: in vivo; conditions: 16 hours after the 13th administration
Description: Animals used were 3-month-old female APP/PS1 double transgenic mice (10-15 mice/group). A test compound was suspended in a 0.5% aqueous methylcellulose [133-14255 WAKO] solution (1 mg/mL). The body weight of the mice was measured, and the solution was forcibly administered orally and repeatedly once a day for 14 days. At 16 hours after the 13th administration, spontaneous alternation behavior in Y-maze test was evaluated. Using a particular arm of a Y-shaped test apparatus as the starting point, the frequency of moving to a different arm was counted for 5 min. The first two times of entry were excluded from the total number of entry. In addition, the mice that entered less than 10 times in total were excluded. Movement to an arm different from the arm into which the mouse entered last but one was considered an alternation behavior, and the ratio to the total number of moving was calculated as a spontaneous alternation behavior rate. As comparison subjects, a control group (test compound-non treatment group) and a control group in wild-type mice were used.

SMILES | decrease rate (%) at 10 mg/kg (24-HC in the brain) | Spontaneous alternation behavior rate (%) ([1]; 10 mg/kg orally once a day) | Spontaneous alternation behavior rate (%) ([1]; 30 mg/kg orally once a day)
O=C(c1ccccc1-c1ccncn1)N1CCC(O)(Cc2ccccc2)CC1 [Example 14, (4-benzyl-4-hydroxypiperidin-1-yl) (2-(pyrimidin-4-yl)phenyl)methanone] | 67% |  | 
O=C(c1ccc(F)cc1-c1ccncc1)N1CCC(O)(Cc2ccccn2)CC1 [Example 30, (4-fluoro-2-(pyridin-4-yl)phenyl) (4-hydroxy-4-(pyridin-2-ylmethyl)piperidin-1-yl)methanone] | 87% |  | 
O=C(c1cccnc1-c1ccncc1)N1CCC(O)(Cc2ccccc2)CC1 [Example 44, (4-benzyl-4-hydroxypiperidin-1-yl) (2,4′-bipyridin-3-yl)methanone] |  | 71% | 71%
O=C(c1cccnc1-c1ccncn1)N1CCC(O)(Cc2ccccc2)CC1 [Example 54, (4-benzyl-4-hydroxypiperidin-1-yl) (2-(pyrimidin-4-yl)pyridin-3-yl)methanone] | 64% |  | 
Cc1nc(-c2ccncn2)c(C(=O)N2CCC(O)(Cc3ccc(F)cc3)CC2)s1 [Example 62, (4-(4-fluorobenzyl)-4-hydroxypiperidin-1-yl) (2-methyl-4-(pyrimidin-4-yl)-1,3-thiazol-5-yl)methanone] | 71% |  | 
O=C(c1cccnc1-c1ccncc1)N1CCC(O)(Cc2ccc(F)cc2)CC1 [Example 67, 2,4′-bipyridin-3-yl (4-(4-fluorobenzyl)-4-hydroxypiperidin-1-yl)methanone] | 43% |  | 
N#Cc1ccc(CC2(O)CCN(C(=O)c3cccnc3-c3ccncc3)CC2)cc1 [Example 70, 4-((1-(2,4′-bipyridin-3-ylcarbonyl)-4-hydroxypiperidin-4-yl)methyl)benzonitrile] | 60% |  | 
O=C(c1cccnc1-c1ccncc1)N1CCC(O)(Cc2ccc(F)cc2F)CC1 [Example 87, 2,4′-bipyridin-3-yl (4-(2,4-difluorobenzyl)-4-hydroxypiperidin-1-yl)methanone] | 37% |  | 
O=C(c1cccnc1-c1ccncn1)N1CCC(O)(Cc2ccc(F)cc2)CC1 [Example 92, (4-(4-fluorobenzyl)-4-hydroxypiperidin-1-yl) (2-(pyrimidin-4-yl)pyridin-3-yl)methanone] | 60% |  | 
O=C(c1cccnc1-c1ccncn1)N1CCC(O)(Cc2ccc(F)cc2F)CC1 [Example 105, (4-(2,4-difluorobenzyl)-4-hydroxypiperidin-1-yl) (2-(pyrimidin-4-yl)pyridin-3-yl)methanone] | 40% |  | 
